“Also recorded” adds a separate entry of the source. Where two headings read alike, the source gives them in different places.
Key:
C. thermocellum cells = assay: Cell-associated cellulosome (cellulase) activity measurement; format: cell-based, Clostridium thermocellum; details: glucose+cellobiose medium vs glucose medium
Procedure: C. thermocellum cells were cultivated to the early exponential stage with various carbon sources. Cell suspensions (1.0 mL) were sampled and centrifuged at 15,000 × g for 10 min to separate supernatant from the pellet. Cell-associated cellulosome activity was measured in a 1.0-mL reaction volume containing the pellet and 15 mg Avicel as the substrate, using GS-2 medium as the reaction buffer. The concentration of reducing sugars was determined by the 3,5-dinitrosalicylic acid method after incubation at 55°C for 24 h unless otherwise stated. One unit of enzyme activity is defined as the amount of enzyme that releases 1 nmol reducing sugar (glucose equivalent) per min.

CbpB [1] = molecular target: T1, CbpB (Acetivibrio thermocellus (Clostridium thermocellum), UniProt A3DE73, V209A/V350L); assay: ITC titration of carbohydrate ligands with CbpB; format: binding
Procedure: (§1) Isothermal titration calorimetry measurements were performed at 30°C using a MicroCal PEAQ-ITC (Malvern Panalytical Ltd., Malvern, United Kingdom). Protein samples were dialyzed against buffer containing 50 mM Tris-HCl (pH 8.0) and 100 mM NaCl. Carbohydrate-ligand solutions of cellodextrins, glucose, and xylose were prepared using the same buffer as for protein dialysis. The sample cell was loaded with 280 μL of protein sample (~50 μM), and the reference cell contained distilled water. The syringe was filled with 50 μL of ligand (500 to 750 μM). Titrations were carried out by adding 0.8 μL of ligand for the first injection and 2 μL for the subsequent 19 injections, with stirring at 750 rpm. Binding parameters were determined by fitting the experimental binding isotherms using a single-site model.

CbpA [2] = molecular target: T2, CbpA (Acetivibrio thermocellus (Clostridium thermocellum), UniProt A3DCF2); assay: NMR titration (1H-15N HSQC) of 15N-labelled CbpA with saccharides; format: binding; details: 298 K, pH 6.5, protein:substrate up to 1:20
Procedure: (§2) NMR titration experiments were performed at 298 K on a Bruker Avance III 600 MHz NMR spectrometer equipped with a cryoprobe. The ^15N-labeled protein samples contained 0.1 or 0.2 mM sugar-binding protein in 20 mM Bis-Tris (pH 6.5), 100 mM KCl, 0.02% (wt/vol) dextran sulfate sodium, and 90% H2O/10% D2O. The concentrations of carbohydrate substrates were 10, 20, or 100 mM in the same buffer. For the titration, the substrates were gradually added to the labeled proteins until the ratio of their concentrations reached 1:20. A series of two-dimensional ^1H-^15N HSQC spectra were recorded at different protein-substrate ratios during the titration.

CbpB [3] = molecular target: T1, CbpB; assay: NMR titration (1H-15N HSQC) of 15N-labelled CbpB with saccharides; format: binding; details: 298 K, pH 6.5, protein:substrate up to 1:20
Procedure: as §2

CbpA [4] = molecular target: T2, CbpA; assay: ITC titration of carbohydrate ligands with CbpA; format: binding
Procedure: as §1

CbpC = test system: CbpC; design: method as in PMID 18952792; details: cited from earlier work
Lbp = test system: Lbp; design: method as in PMID 18952792; details: previous study; cited from earlier work
CbpD [5] = assay: ITC titration of carbohydrate ligands with CbpD; format: binding, Clostridium thermocellum; details: 30°C
Procedure: as §1

CbpD [6] = assay: NMR titration of 15N-labelled CbpD with saccharides; format: binding, Clostridium thermocellum; details: 298 K
Procedure: as §2

[7] = ITC, 30°C, 50 mM Tris-HCl pH 8.0, 100 mM NaCl, single-site model
[8] = ITC, 30°C, 50 mM Tris-HCl pH 8.0, 100 mM NaCl, single-site model, read-out: KD (dissociation constant)

T1 sequence (A3DE73 entry or part of it V209A/V350L): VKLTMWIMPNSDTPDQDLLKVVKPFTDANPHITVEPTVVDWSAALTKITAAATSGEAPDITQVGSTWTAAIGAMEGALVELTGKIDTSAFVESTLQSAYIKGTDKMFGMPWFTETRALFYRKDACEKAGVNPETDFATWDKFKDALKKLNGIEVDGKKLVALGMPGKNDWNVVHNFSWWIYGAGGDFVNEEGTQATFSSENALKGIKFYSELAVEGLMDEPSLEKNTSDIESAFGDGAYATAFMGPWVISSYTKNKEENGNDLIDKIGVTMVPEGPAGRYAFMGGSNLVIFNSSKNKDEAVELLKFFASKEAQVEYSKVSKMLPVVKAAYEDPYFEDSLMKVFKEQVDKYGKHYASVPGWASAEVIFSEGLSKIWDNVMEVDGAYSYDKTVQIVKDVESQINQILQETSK
T2 sequence (A3DCF2 entry or part of it): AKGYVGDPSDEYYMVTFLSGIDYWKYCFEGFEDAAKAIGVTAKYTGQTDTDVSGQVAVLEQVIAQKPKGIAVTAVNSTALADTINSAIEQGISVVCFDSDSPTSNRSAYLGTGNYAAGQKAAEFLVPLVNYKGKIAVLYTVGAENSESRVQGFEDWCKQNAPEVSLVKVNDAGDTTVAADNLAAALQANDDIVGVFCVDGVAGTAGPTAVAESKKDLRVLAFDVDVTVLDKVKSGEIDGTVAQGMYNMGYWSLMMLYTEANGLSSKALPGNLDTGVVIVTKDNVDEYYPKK

Compound	Ka (CbpB [1]; ITC, 30°C)	TΔS (CbpB [1]; ITC, 30°C) [kcal/mol]	ΔG (CbpB [1]; ITC, 30°C) [kcal/mol]	ΔH (change in enthalpy) (CbpB [1]; ITC, 30°C) [kcal/mol]	N (number of binding site) (CbpB [1]; [7])	binding to CbpA in NMR titration (HSQC peak shifts) (CbpA [2])	binding to CbpB in NMR titration (HSQC peak shifts) (CbpB [3])	Kd (CbpB [1]; [8]) [nM]	interaction with CbpB in ITC, in words (CbpB [1]; ITC, 30°C)	also measured
O=C[C@H](O)[C@@H](O)[C@H](O[C@@H]1O[C@H](CO)[C@@H](O)[C@H](O)[C@H]1O)[C@H](O)CO [Cellobiose, cellobiose]	5.29 ± 0.99 ×10^5 · M^−1	4.66	-7.93	-3.27 ± 0.096	1.03 ± 0.02	not	can bind; also recorded: significant peak shifts	–	–	induction effect on cellulosome expression (cellulase activity) (C. thermocellum cells; wild-type cells, 5 g/L cellobiose): significant induction effect; induction effect on cellulosome expression (cellulase activity) (C. thermocellum cells; ΔtransporterB and Δ2554 cells): no induction effect; Kd (CbpB [1]): 1890 ± 360 nM
OC[C@H]1O[C@@H](O[C@H]2[C@H](O)[C@@H](O)[C@H](O[C@H]3[C@H](O)[C@@H](O)[C@H](O[C@H]4[C@H](O)[C@@H](O)[C@H](O[C@H]5[C@H](O)[C@@H](O)C(O)O[C@@H]5CO)O[C@@H]4CO)O[C@@H]3CO)O[C@@H]2CO)[C@H](O)[C@@H](O)[C@@H]1O (some centres unmarked) [Cellopentaose, cellopentaose]	14.9 ± 3.3 ×10^5 · M^−1	11.3	-8.58	2.75 ± 0.072	1.02 ± 0.01	–	–	670 ± 150	–	–
OC[C@H]1O[C@@H](O[C@H]2[C@H](O)[C@@H](O)[C@H](O[C@H]3[C@H](O)[C@@H](O)[C@H](O[C@H]4[C@H](O)[C@@H](O)C(O)O[C@@H]4CO)O[C@@H]3CO)O[C@@H]2CO)[C@H](O)[C@@H](O)[C@@H]1O (some centres unmarked) [Cellotetraose, cellotetraose]	17.8 ± 2.5 ×10^5 · M^−1	10.3	-8.68	1.66 ± 0.0263	1.02 ± 0.08	–	–	560 ± 80	highest binding affinity	Kd (CbpB [1]; ITC, 30°C, 50 mM Tris-HCl pH 8.0, 100 mM NaCl, single-site model, listed as cellotetraose, read-out: KD (dissociation constant)): 562 nM
OC[C@H]1O[C@@H](O[C@H]2[C@H](O)[C@@H](O)[C@H](O[C@H]3[C@H](O)[C@@H](O)C(O)O[C@@H]3CO)O[C@@H]2CO)[C@H](O)[C@@H](O)[C@@H]1O (some centres unmarked) [Cellotriose, cellotriose]	8.55 ± 1.69 ×10^5 · M^−1	10.7	-8.25	2.49 ± 0.072	0.97 ± 0.02	not	significant peak shifts	1170 ± 230	–	–
OC[C@H]1OC(O)[C@H](O)[C@@H](O)[C@@H]1O (some centres unmarked) [Glucose, glucose]	–	–	–	–	–	binds; also recorded: significant peak shifts	not	–	could not be fitted to obtain reasonable N and KD values	Kd (CbpA [4]): 240000 ± 95000 nM; binding to CbpA in ITC, in words (CbpA [4]; ITC): remarkably weak; Ka (CbpA [4]; ITC, 30°C): 0.042 ± 0.016 ×10^5 · M^−1; TΔS (CbpA [4]; ITC, 30°C): 5.43 kcal/mol; ΔG (CbpA [4]; ITC, 30°C): -5.02 kcal/mol; ΔH (change in enthalpy) (CbpA [4]; ITC, 30°C): 0.409 ± 0.086 kcal/mol; N (number of binding site) (CbpA [4]; [7]): 1.06 ± 0.07; binding to CbpC in previous ITC experiments (CbpC): can bind
OC[C@H]1O[C@@H](O[C@H]2[C@H](O)[C@@H](CO)OC(O)[C@@H]2O)[C@H](O)[C@@H](O)[C@@H]1O (some centres unmarked) [Laminaribiose, laminaribiose]	0.93 ± 0.25 ×10^5 · M^−1	7.98	-6.91	1.09 ± 0.1	0.98 ± 0.04	–	–	10700 ± 2800	lower affinity compared to cellobiose	binding to Lbp in ITC assays (Lbp): shown to bind
O=C[C@H](O)[C@@H](O)[C@H](O)CO [xylose]	–	–	–	–	–	–	–	–	–	interaction with CbpD in ITC (CbpD [5]): could not detect any xylose-binding ability; interaction with CbpD in NMR titration (CbpD [6]): could not detect any xylose-binding ability

— article PMC9601137, “Deciphering Cellodextrin and Glucose Uptake in Clostridium thermocellum” (mBio, 2022)
